We go through 1 molecule from patent publication US20030195168A1, “Therapeutic agents - III” (priority 2000, published 2003).

For one assay, the target named is T1, PKCα (Homo sapiens, UniProt P17252).
T1 construct: host or cells: HeLa cells
It is filed as cell-based. As to conditions: HeLa. As to the method: Five EGFP-PKC isoforms (Clontech) were available for this experiment, enabling the screening of the three predominant PKC families (i.e. classical, novel and atypical PKCs). The members of the various PKC families are α, β, and γ (classical), θ (novel) and ζ (atypical).
HeLa cells were plated out in a 24-well plate containing coverslips and transfected with PKC isoforms fused to EGFP, using a commercially available effectine-transfection kit (QIAGEN, Pty. Ltd.). Cells were exposed to the transfection reagents for 16-24 hr. Subsequently, transfected cells were treated for one hour with TPA (100 ng/mL), bryostatin-1 (5 pg/mL), PEP003 (2.25 μg/mL; 5 μM) or PEP005 ([…]) 1.5 μM). Following treatment, cells were fixed on coverslips and mounted on glass slides. The slides were subsequently examined visually by fluorescence microscopy, photographed, and over 150 cells were counted/treatment/PKC isoform. Counted cells were classified according to the localisation of the PKC-EGFP fluorescence as either cytoplasmic or plasma membrane using ImagePro™ 4.1 (FIG. 5). […] The number of these cells was also counted.

Assay [1] deals with latently HIV-1 infected cell line (U1). As to the kind of experiment: Activation of latent HIV from U1 cells (p24 ELISA). It is filed as cell-based, HIV-1 LAI strain. To be noted: 20 hr, FIG. 7. The text has this: However, the regimen is very burdensome, requiring strict adherence to prevent a recurrence of viraemia. Long-lived cells […], such as CD4^+ cells, act as a major latent reservoir and enable the virus to avoid anti-retroviral chemotherapy or immune system surveillance. There is, therefore, an urgent need to find an agent which activates latent virus from the infected cells. Activated virus could then be killed by aggressive anti-retroviral chemotherapy and it has been hypothesized that immune system surveillance could also be improved under these conditions. Such an agent could have utility in other disease states in which virus is sequestered in infected cells, e.g. herpes infections. Anti-cancer agents have been widely investigated as potential anti-HIV agents. […] However, PMA is a known tumor promoter. A latently HIV-1 infected cell line (U1), derived from the promonocytic cell line U937 after infection with HIV-1 LAI strain, was used in these experiments. In the absence of activation, no or little virus (measured as p24 production) is produced by the U1 cell line. […]
Supernatants were collected and viral replication monitored by determination of the amounts of HIV p24 gag protein in the culture supernatants by ELISA, using a NEN Life Science HIV-1 p24 ELISA kit. p24 values were calculated from OD values using a standard curve.

In assay [2] the test system is Human peripheral blood mononuclear cells (PBMC). Put plainly: Phagocytic activity of PBMC, nitroblue tetrazolium uptake. It is filed as cell-based. To be noted: 100 ng/mL; 20 min; controls <2%. On the procedure: Human peripheral blood mononuclear cells (PBMC) prepared by standard Ficoll separation comprise approximately 5% monocytes. PBMC were incubated with dihydroethidium, a reduced form of the dye which becomes fluorescent when oxidized by a respiratory burst, then treated in 10% FCS-RPMI 1640 at 37° C. for 15 min with crude E. peplus extract diluted 1/1000 or 100 ng/mL TPA and analyzed by flow cytometry using conventional methods (Handbook of Flow Cytometry Methods, p. 151) The mean channel numbers for fluorescence were 618 (controls) and 818 (E. peplus extract diluted 1/1000). […] Phagocytic activity was determined by a conventional method (Hudson and Hay, Practical Immunology, 3rd edition, p. 74). […] The average of three fields gave figures of <2% (controls), 10% (TPA) and 8.7% (E. peplus sap) cells stained blue.

For assay [3], the system named is Peripheral blood mononuclear cells (PBMC). As to the kind of experiment: Respiratory burst (H2O2) in PBMC, DCFH-DA flow cytometry. The class given is cell-based. As to conditions: 15 min at 37° C.; granulocytes, monocytes, lymphocytes. On the procedure: Experiments were also carried out using 2′,7′-dichlorofluorescein diacetate (DCFH-DA) to measure the production of H2O2.(J P Robinson, Oxidative burst methods, in Handbook of Flow Cytometry Methods, Wiley-Liss Inc, pp147-149, 1993). H2O2 oxidizes the non-fluorescent probe (DCFH-DA) to a fluorescent probe that can then be detected by a flow cytometer. Peripheral blood mononuclear cells (PBMC) were extracted from a donor blood sample by lysis of heparinized blood and used in a suspension of 1×10^6/mL of phosphate buffer, pH 7.3. The cells were then incubated with DCFH-DA (1 μL/mL of 20 mM stock) for 15 minutes to allow it to be taken up and trapped by hydrolysis with cellular esterases. The cells were then stimulated by test compounds for 15 min at 37° C. Controls included in the experiment were unloaded control (cells with no DCFH-DA) and loaded control (cells with DCFH-DA, but no stimulation). These were used to monitor the non-specific oxidation of unstimulated cells. The cells were then analyzed on the flow cytometer (excitation at 488 nm, emission at 525±20 nm), gating each sample for individual cell populations-granulocytes, monocytes and lymphocytes (Table 3).

For assay [4], the system named is peripheral blood mononuclear cells (PBMCs). Put plainly: Phagocytosis with fluorescent beads. The class given is cell-based. As to conditions: whole heparinized blood, 30 min at 37° C. On the procedure:
Phagocytosis by peripheral blood mononuclear cells (PBMCs) was assayed (Steinkamp et al., 1982) using 1 μm Fluoresbrite™ yellow-green fluorescent latex spheres (Polysciences, Inc., Warrington, Pa.). A sample of whole, heparinized blood was treated with drug and 5×10E7 fluorescent latex beads in 10 μL of PBS added per mL of suspension. Cells were incubated and maintained in suspension for 30 min by means of a shaker platform at 37° C. The stirnulated and non-stimulated samples were then lysed to isolate PBMCs. The PBMCs were run on the flow cytometer measuring FITC (excitation at 488 nm, emission at 525±20 nm), gated for fluorescence (phagocytosed spheres) and light scatter (cell size).

The subject of assay [5] is EBV in Burkitt's lymphoma cell lines (MutuI and BL74). Put plainly: EBV activation in Burkitt's lymphoma cell lines (VCA western blot). It is filed as cell-based. As to the method: To ensure that equal amounts of each sample were analyzed, the gels were stained with Coomassie blue and the loadings were adjusted to make them equal. […] Next the PEP003 and PEP004 were assayed on two Burkitt's lymphoma cell lines and an LCL. This time only concentrations of 10^−5 and 10^−7 were used.

Another assay concerns rat brain PKC. As to the kind of experiment: PepTag non-radioactive PKC kinase activity assay. As to conditions: FIG. 1; TPA 100-0.01 ng/ml; ether extract final dilution 1 in 5; aqueous layer and crude sap diluted 1/25.

Experimental for rat brain PKC: The kinase activity of rat brain PKC (Promega) was determined using the Peptag™ Non-Radioactive Protein Kinase Kit (Promega). Using agarose gel electrophoresis the technique visualises the opposing electrostatic charge of a fluorescently labeled peptide ([sequence]) compared to the phosphorylated version of the same peptide.
The reaction mixture was separated by gel electrophoresis, showing migration of the unreacted substrate (a) to the anode (top), and the product (b), which is more negatively charged because of phosphorylation by PKC, moving towards the cathode (bottom).

For `CCCCCCCCCCCCCC(=O)O[C@@H]1[C@@H](C)[C@@]2(O)[C@@H](C=C(CO)C[C@]3(O)C(=O)C(C)=C[C@@H]23)C2C(C)(C)[C@@]21OC(C)=O` (single isomer, unassigned) [TPA], the “number of PKCα transfected cells displaying Golgi-like fluorescence” value on PKCα (one hour treatment) is recorded as “increase in the number of cells displaying Golgi-like fluorescence”. Besides, the “translocation of PKCα to the plasma membrane” value on PKCα (one hour, TPA 100 ng/mL, bryostatin-1 5 pg/mL, PEP003 2.25 μg/mL (5 μM)) is “translocated from the cytoplasm to the plasma membrane”. Besides, the “activation of HIV from U1 cells (p24 production)” value in assay [1] is listed as “activated HIV from U1 cells”. Besides, the “cells stained blue (NBT)” value in assay [2] is 10%. For the same molecule, the “induction of a respiratory burst (H2O2, DCFH-DA)” value in assay [3] is given as “respiratory burst seen”. The “stimulation of phagocytosis of fluorescent latex beads” value in assay [4] was “stimulate phagocytosis in PBMCs”. In addition, the “induction of VCA in MutuI cells” value in assay [5] is “TPA did not”. Besides, the “activation of PKC (phosphorylation of fluorescent PepTag substrate)” value in the assay on rat brain PKC was “showed activation of PKC”.
